Results on three compounds are retold here after ChEMBL document CHEMBL4308890, “A carbapenem-based fluorescence assay for the screening of metallo-β-lactamase inhibitors” (Bioorg Med Chem Lett, 2019).

The subject of test [1] is Aeromonas hydrophila subsp. hydrophila ATCC 7966. Put plainly: Inhibition of Aeromonas hydrophila ATCC 7966 CphA expressed in Escherichia coli LMG194 at 50 uM using CPC-1 as substrate preincubated for 10 mins followed by substrate addition by fluorescence assay relative to control.
A short description of test [2]: Inhibition of Aeromonas hydrophila ATCC 7966 beta-lactamase L1 expressed in Escherichia coli LMG194 using FC3 as substrate preincubated for 10 mins followed by substrate addition by fluorescence assay. Also on record: species or system Aeromonas hydrophila subsp. hydrophila ATCC 7966.
A short description of test [3]: Inhibition of Aeromonas hydrophila ATCC 7966 CphA expressed in Escherichia coli LMG194 using CPC-1 as substrate preincubated for 10 mins followed by substrate addition by fluorescence assay. The arrangement: species or system Aeromonas hydrophila subsp. hydrophila ATCC 7966.
A short description of test [4]: Inhibition of Aeromonas hydrophila ATCC 7966 beta-lactamase L1 expressed in Escherichia coli LMG194 using CPC-1 as substrate preincubated for 10 mins followed by substrate addition by fluorescence assay. Also on record: species or system Aeromonas hydrophila subsp. hydrophila ATCC 7966.
The nature of test [5]: Inhibition of Aeromonas hydrophila ATCC 7966 NDM1 expressed in Escherichia coli LMG194 using CPC-1 as substrate preincubated for 10 mins followed by substrate addition by fluorescence assay. Also on record: species or system Aeromonas hydrophila subsp. hydrophila ATCC 7966.
Test [6] is described as follows: Inhibition of Aeromonas hydrophila ATCC 7966 IMP1 expressed in Escherichia coli LMG194 using CPC-1 as substrate preincubated for 10 mins followed by substrate addition by fluorescence assay. Also on record: species or system Aeromonas hydrophila subsp. hydrophila ATCC 7966.
A short description of test [7]: Inhibition of Aeromonas hydrophila ATCC 7966 NDM1 expressed in Escherichia coli LMG194 using FC3 as substrate preincubated for 10 mins followed by substrate addition by fluorescence assay. The arrangement: species or system Aeromonas hydrophila subsp. hydrophila ATCC 7966.
Test [8] in a line: Inhibition of Aeromonas hydrophila ATCC 7966 IMP1 expressed in Escherichia coli LMG194 using FC3 as substrate preincubated for 10 mins followed by substrate addition by fluorescence assay. The arrangement: species or system Aeromonas hydrophila subsp. hydrophila ATCC 7966.
Test [9] is described as follows: Inhibition of Aeromonas hydrophila ATCC 7966 CphA expressed in Escherichia coli LMG194 using imipenem as substrate. Also on record: species or system Aeromonas hydrophila subsp. hydrophila ATCC 7966.

The structures appear in SMILES notation.

As for `O=c1c2ccccc2[se]n1-c1ccccc1`, the inhibition in test [1] is < 50%.

Take `OCC(S)CS` (stereo not given) [DIMERCAPROL]: the IC50 in [2] amounted to 2600 nM; in test [3] it was 7.8 µM; in [4], 5 µM; in test [5], 1.5 µM; in test [6] it was 7.1 µM; in [7], 1 µM. In addition, in test [8], half-maximal inhibition (IC50) required 6.2 µM. Moreover, in [1], the inhibition is > 80%.

`O=C(O)c1cccc(C(=O)O)n1` [DIPICOLINIC ACID]: the concentration for half-maximal inhibition (IC50) in test [3] worked out at 61.5 µM; in test [9] it was 88.4 µM; in test [5] it was 8.8 µM; in test [6] it was 23.6 µM; in test [7] it was 6.2 µM; in test [8], 29.4 µM.

The term inhibition denotes the change of the read-out against control, counted positive when it falls. Read a low inhibition as a response near the control. As a reminder, the IC50 is the concentration that gives 50% inhibition. A high value points to lower potency.
